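1) Cells in 96-well plates. 2) Compound, 48 h, 5 concentrations. 3) Linear interpolation between surrounding doses. 4) Unreached endpoint = highest concentration. GI50 is the concentration that inhibits growth by half.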 Activity calls are given as the source filed them. Rule as the data show it: active = GI50 up to about 1.1 µM and inactive = higher.
Assays:
Experiment in all cases: inhibition of tumour cell growth, NCI panel, 48 h
ACHN = tested on: ACHN
EKVX = tested on: EKVX
HCC 2998 = tested on: HCC 2998
HOP-92 = tested on: HOP-92
Hs-578T = tested on: Hs-578T
LOX IMVI = tested on: LOX IMVI
MCF7 = tested on: MCF7
MDA-MB-435 = tested on: MDA-MB-435
MDA-N = tested on: MDA-N
Malme-3M = tested on: Malme-3M
OVCAR-3 = tested on: OVCAR-3
OVCAR-5 = tested on: OVCAR-5
OVCAR-8 = tested on: OVCAR-8
SF-268 = tested on: SF-268
SF-295 = tested on: SF-295
SW-620 = tested on: SW-620
TK-10 = tested on: TK-10
UO-31 = tested on: UO-31
PC-3 = tested on: PC-3
SR = tested on: SR

Measured: GI50

CCc1n[nH]c(=O)n1/N=C/c1ccc(C)cc1
inactive: ACHN > 100 µM | EKVX 3.41 µM | HCC 2998 > 100 µM | HOP-92 > 100 µM | Hs-578T 3.84 µM | LOX IMVI 69.8 µM | MCF7 > 100 µM | MDA-MB-435 > 100 µM | MDA-N > 100 µM | Malme-3M > 100 µM | OVCAR-3 69.5 µM | OVCAR-5 > 100 µM | OVCAR-8 > 100 µM | SF-268 66.5 µM | SF-295 > 100 µM | SW-620 > 100 µM | TK-10 60.3 µM | UO-31 64.9 µM

CCOC(=O)C1C(=O)CC(C)(O)C(C(=O)OCC)C1c1ccc(O)c(OC)c1 (stereo unspecified)
inactive: ACHN > 100 µM | EKVX > 100 µM | HCC 2998 > 100 µM | HOP-92 > 100 µM | LOX IMVI > 100 µM | MCF7 > 100 µM | MDA-MB-435 > 100 µM | MDA-N > 100 µM | Malme-3M > 100 µM | OVCAR-3 > 100 µM | OVCAR-5 > 100 µM | OVCAR-8 > 100 µM | PC-3 > 100 µM | SF-268 > 100 µM | SF-295 > 100 µM | SR > 100 µM | SW-620 > 100 µM | TK-10 > 100 µM | UO-31 > 100 µM

N#CC(C#N)/N=N/c1ccc(-c2nc3ccccc3s2)cc1
inactive: ACHN 3.68 µM | EKVX 7.03 µM | HOP-92 1.48 µM | LOX IMVI 7 µM | MCF7 4.53 µM | MDA-MB-435 5.6 µM | MDA-N 4.93 µM | Malme-3M 3.15 µM | OVCAR-5 28 µM | OVCAR-8 4.37 µM | PC-3 2.8 µM | SR 3.23 µM | SW-620 4.79 µM | TK-10 3.98 µM | UO-31 7.46 µM

N/C(=N\n1c(=S)[nH]c2ccccc2c1=O)Nn1c(=S)[nH]c2ccccc2c1=O
inactive: ACHN 46.7 µM | EKVX 67.6 µM | HCC 2998 > 100 µM | LOX IMVI 18.8 µM | MCF7 33.7 µM | MDA-MB-435 36.9 µM | MDA-N 24.7 µM | Malme-3M 20.5 µM | OVCAR-3 > 100 µM | OVCAR-5 80.4 µM | OVCAR-8 28.8 µM | PC-3 51.8 µM | SF-268 21.1 µM | SF-295 > 100 µM | SR 20.3 µM | SW-620 18.9 µM | TK-10 > 100 µM | UO-31 14.3 µM

COc1ccc(/C=N/n2c(Cc3ccc(Cl)cc3)n[nH]c2=O)cc1
inactive: ACHN 45.1 µM | EKVX 30.1 µM | HCC 2998 > 100 µM | HOP-92 17.3 µM | MCF7 77.8 µM | MDA-MB-435 > 100 µM | MDA-N > 100 µM | OVCAR-3 > 100 µM | OVCAR-5 29.5 µM | OVCAR-8 16.7 µM | PC-3 92.5 µM | SF-295 19.8 µM | SR 37.3 µM | SW-620 > 100 µM | UO-31 > 100 µM

O=C(c1cccc2cc(O)ccc12)c1cn(CCN2CCOCC2)c2ccccc12
inactive: ACHN 33.7 µM | EKVX 28.1 µM | HOP-92 31.4 µM | LOX IMVI 20.6 µM | MCF7 25.5 µM | MDA-N 25.2 µM | Malme-3M 22.8 µM | OVCAR-5 29.5 µM | OVCAR-8 31.6 µM | PC-3 12 µM | SF-268 24 µM | SR 50.2 µM | SW-620 22.4 µM | TK-10 21.6 µM | UO-31 24.1 µM

CCOC(=O)/C(=C\c1c(C)[nH]c2ccccc12)P(=O)(OCC)OCC
inactive: ACHN > 100 µM | EKVX > 100 µM | HCC 2998 > 100 µM | Hs-578T > 100 µM | LOX IMVI > 100 µM | MCF7 > 100 µM | MDA-MB-435 > 100 µM | MDA-N > 100 µM | Malme-3M > 100 µM | OVCAR-3 > 100 µM | OVCAR-5 > 100 µM | OVCAR-8 > 100 µM | SF-268 > 100 µM | SF-295 > 100 µM | SR > 100 µM | SW-620 > 100 µM | TK-10 > 100 µM

CCCCCCCCCN1CCC(=O)C(C(=O)OC)C1 (stereo unspecified)
inactive: ACHN 8.93 µM | EKVX 15.5 µM | HCC 2998 19.5 µM | HOP-92 17.7 µM | Hs-578T 17.1 µM | LOX IMVI 12.5 µM | MCF7 12.3 µM | MDA-MB-435 14.7 µM | MDA-N 16 µM | OVCAR-3 15.5 µM | OVCAR-5 15.3 µM | OVCAR-8 8.07 µM | SF-268 16.3 µM | SF-295 17.3 µM | SR 3.86 µM | SW-620 11.9 µM | TK-10 16.7 µM | UO-31 10.3 µM

CCN(C(=O)N[C@H](C(=O)N[C@@H](CSC)C(=O)N[C@@H](C)C(=O)OC)C(C)C)c1ccccc1
inactive: ACHN 15.6 µM | EKVX 13.5 µM | HCC 2998 19.6 µM | HOP-92 12.8 µM | LOX IMVI 10.4 µM | MCF7 16.1 µM | MDA-MB-435 14.7 µM | MDA-N 17.3 µM | Malme-3M 12.8 µM | OVCAR-3 20 µM | OVCAR-5 15.5 µM | OVCAR-8 17.2 µM | PC-3 16.9 µM | SF-295 17.9 µM | SR 3.83 µM | SW-620 14.6 µM | TK-10 13.6 µM | UO-31 17.5 µM

C/C(=N\Nc1ccc([N+](=O)[O-])cc1[N+](=O)[O-])c1sc(-n2nc(-c3ccccc3)cc2-c2ccccc2)nc1C
inactive: ACHN 16.6 µM | EKVX 26.5 µM | HCC 2998 32.9 µM | HOP-92 23.9 µM | Hs-578T 78.9 µM | LOX IMVI 11.9 µM | MCF7 46.5 µM | MDA-MB-435 33 µM | MDA-N 46.8 µM | Malme-3M 76.7 µM | OVCAR-3 39.4 µM | OVCAR-5 > 100 µM | OVCAR-8 30.5 µM | SF-268 44.2 µM | SF-295 35.7 µM | SR 18.3 µM | SW-620 26.3 µM | TK-10 27.9 µM | UO-31 19.8 µM

O=C(N[C@H](CO)[C@H](O)c1ccc([N+](=O)[O-])cc1)C(Cl)Cl [CHLORAMPHENICOL]
inactive: ACHN > 100 µM | EKVX > 100 µM | HCC 2998 > 100 µM | HOP-92 85.3 µM | LOX IMVI > 100 µM | MCF7 > 100 µM | MDA-MB-435 > 100 µM | MDA-N > 100 µM | Malme-3M > 100 µM | OVCAR-3 > 100 µM | OVCAR-5 > 100 µM | OVCAR-8 > 100 µM | PC-3 > 100 µM | SF-268 > 100 µM | SF-295 > 100 µM | SR > 100 µM | SW-620 > 100 µM | TK-10 > 100 µM | UO-31 > 100 µM

— ChEMBL document CHEMBL1201862, “PubChem BioAssay data set” (2004)
